Assay results: patent US4170642A, “Derivatives of kanamycin A” (Zaidan Hojin Biseibutsu Kagaku Kenkyu Kai, priority 1974, dated 1979)
In brackets after ≈: the same amount, converted by molar mass.

Experiments:
Format in all cases: cell-based
[1] = tested on: Escherichia coli K-12 ML1410; test: MIC by serial dilution method on nutrient agar; conditions: K12ML1410, 37° C
Description: (§1) The minimum inhibitory concentrations (MIC) of 1-AHB-6'-MKM and 1-AHB-6'-EKM against various micro-organisms were determined by the serial dilution method using a nutrient agar medium at 37° C.

[2] = tested on: Mycobacterium smegmatis ATCC607; test: MIC by serial dilution method on nutrient agar; conditions: Mycolicibacterium smegmatis, 37° C
Description: as §1

Escherichia coli K-12 R5 = test: MIC by serial dilution method on nutrient agar; conditions: K12R5
Description: as §1

[3] = tested on: Escherichia coli JR66/W677; test: MIC by serial dilution method on nutrient agar; conditions: for MIC: nutrient agar, 37° C
Description: as §1

[4] = tested on: Klebsiella pneumoniae PCI 602; test: MIC by serial dilution method on nutrient agar; conditions: PCI602, 37° C
Description: as §1

[5] = tested on: Staphylococcus aureus FDA209P; test: MIC by serial dilution method on nutrient agar; conditions: 37° C
Description: as §1

[6] = tested on: Escherichia coli LA290 R55; test: MIC by serial dilution method on nutrient agar; conditions: LA290R55
Description: as §1

[7] = tested on: Pseudomonas aeruginosa TI-13; test: MIC by serial dilution method on nutrient agar; conditions: for MIC: TI13, nutrient agar, 37° C
Description: as §1

[8] = tested on: Escherichia coli K-12 ML1629; test: MIC by serial dilution method on nutrient agar; conditions: for MIC: K12ML1629, nutrient agar, 37° C
Description: as §1

[9] = tested on: Pseudomonas aeruginosa A3; test: MIC by serial dilution method on nutrient agar; conditions: 37° C
Description: as §1

Escherichia coli K-12 = test: MIC by serial dilution method on nutrient agar; conditions: K12, 37° C
Description: as §1

[10] = tested on: Pseudomonas aeruginosa 99; test: MIC by serial dilution method on nutrient agar; conditions: 37° C
Description: as §1

[11] = tested on: Escherichia coli LA290 R64; test: MIC by serial dilution method on nutrient agar; conditions: LA290R64
Description: as §1

[12] = tested on: Escherichia coli LA290 R56; test: MIC by serial dilution method on nutrient agar; conditions: LA290R56
Description: as §1

[13] = tested on: Klebsiella pneumoniae 22#3038; test: MIC by serial dilution method on nutrient agar; conditions: for MIC: nutrient agar, 37° C
Description: as §1

[14] = tested on: Pseudomonas aeruginosa No. 12; test: MIC by serial dilution method on nutrient agar; conditions: 37° C
Description: as §1

[15] = tested on: Pseudomonas aeruginosa GN315; test: MIC by serial dilution method on nutrient agar; conditions: for MIC: nutrient agar, 37° C
Description: as §1

Escherichia coli W677 = test: MIC by serial dilution method on nutrient agar; conditions: 37° C
Description: as §1

[16] = tested on: Escherichia coli K-12 ML1630; test: MIC by serial dilution method on nutrient agar; conditions: for MIC: K12ML1630, nutrient agar, 37° C
Description: as §1

[17] = tested on: some strains of gram-negative bacteria carrying R factor Staphylococcus aureus and Pseudomonas aeruginosa; test: resistance of strains isolated from patients

Structure (SMILES)	MIC [1] [µg/mL]	MIC [2] [µg/mL]	MIC (Escherichia coli K-12 R5) [µg/mL]	MIC [3] [µg/mL]	MIC [4] [µg/mL]	MIC [5] [µg/mL]	MIC [6] [µg/mL]	MIC [7] [µg/mL]	MIC [8] [µg/mL]	MIC [9] [µg/mL]	MIC (Escherichia coli K-12) [µg/mL]	MIC [10] [µg/mL]	MIC [11] [µg/mL]	MIC [12] [µg/mL]	MIC [13] [µg/mL]	MIC [14] [µg/mL]	MIC [15] [µg/mL]	MIC (Escherichia coli W677) [µg/mL]	MIC [16] [µg/mL]	other results
CCNC[C@H]1O[C@H](O[C@H]2[C@H](O)[C@@H](O[C@H]3O[C@H](CO)[C@@H](O)[C@H](N)[C@H]3O)[C@H](NC(=O)[C@@H](O)CCN)C[C@@H]2N)[C@H](O)[C@@H](O)[C@@H]1O [1-AHB-6'-EKM, 1-N-(L-4-amino-2-hydroxybutyryl)-6'-N-ethylkanamycin]	3.12 (≈ 5.08 µM)	3.12 (≈ 5.08 µM)	1.56 (≈ 2.54 µM)	25 (≈ 40.7 µM)	1.56 (≈ 2.54 µM)	1.56 (≈ 2.54 µM)	3.12 (≈ 5.08 µM)	50 (≈ 81.5 µM)	3.12 (≈ 5.08 µM)	25 (≈ 40.7 µM)	1.56 (≈ 2.54 µM)	100 (≈ 163 µM)	1.56 (≈ 2.54 µM)	1.56 (≈ 2.54 µM)	25 (≈ 40.7 µM)	25 (≈ 40.7 µM)	100 (≈ 163 µM)	1.56 (≈ 2.54 µM)	6.25 (≈ 10.2 µM)	–
CNC[C@H]1O[C@H](O[C@H]2[C@H](O)[C@@H](O[C@H]3O[C@H](CO)[C@@H](O)[C@H](N)[C@H]3O)[C@H](NC(=O)[C@@H](O)CCN)C[C@@H]2N)[C@H](O)[C@@H](O)[C@@H]1O [1-AHB-6'-MKM, 1-N-(L-4-amino-2-hydroxybutyryl)-6'-N-methylkanamycin]	1.56 (≈ 2.6 µM)	0.39 (≈ 0.65 µM)	0.78 (≈ 1.3 µM)	6.25 (≈ 10.4 µM)	0.78 (≈ 1.3 µM)	0.78 (≈ 1.3 µM)	1.56 (≈ 2.6 µM)	12.5 (≈ 20.8 µM)	0.78 (≈ 1.3 µM)	6.25 (≈ 10.4 µM)	0.39 (≈ 0.65 µM)	12.5 (≈ 20.8 µM)	0.78 (≈ 1.3 µM)	0.78 (≈ 1.3 µM)	6.25 (≈ 10.4 µM)	3.12 (≈ 5.2 µM)	50 (≈ 83.4 µM)	1.56 (≈ 2.6 µM)	1.56 (≈ 2.6 µM)	–
CNC[C@H]1O[C@H](O[C@H]2[C@H](O)[C@@H](O[C@H]3O[C@H](CO)[C@@H](O)[C@H](N)[C@H]3O)[C@H](N)C[C@@H]2N)[C@H](O)[C@@H](O)[C@@H]1O [6'-N-methylkanamycin, reference compound]	–	–	–	–	–	–	–	–	–	–	–	–	–	–	–	–	–	–	–	inhibition of kanamycin-resistant strain [3]: does not inhibit; inhibition of kanamycin-resistant strain [7]: does not inhibit; inhibition of kanamycin-resistant strain [8]: does not inhibit; inhibition of kanamycin-resistant strain [13]: does not inhibit; inhibition of kanamycin-resistant strain [15]: does not inhibit; inhibition of kanamycin-resistant strain [16]: does not inhibit
NC[C@H]1O[C@H](O[C@H]2[C@H](O)[C@@H](O[C@H]3O[C@H](CO)[C@@H](O)[C@H](N)[C@H]3O)[C@H](N)C[C@@H]2N)[C@H](O)[C@@H](O)[C@@H]1O [kanamycin]	–	–	–	–	–	–	–	–	–	–	–	–	–	–	–	–	–	–	–	resistance of strains [17]: resistant
